Drawing on publication PMC9978853 (Acta Pharmaceutica Sinica. B, 2022), this text covers co-crystal structure for one compound.

This test concerns the target NAMPT (Mus musculus, UniProt Q99KQ4). Kind of test: co-crystal structure. It is filed as binding.

Chain of NAMPT (Q99KQ4 whole entry): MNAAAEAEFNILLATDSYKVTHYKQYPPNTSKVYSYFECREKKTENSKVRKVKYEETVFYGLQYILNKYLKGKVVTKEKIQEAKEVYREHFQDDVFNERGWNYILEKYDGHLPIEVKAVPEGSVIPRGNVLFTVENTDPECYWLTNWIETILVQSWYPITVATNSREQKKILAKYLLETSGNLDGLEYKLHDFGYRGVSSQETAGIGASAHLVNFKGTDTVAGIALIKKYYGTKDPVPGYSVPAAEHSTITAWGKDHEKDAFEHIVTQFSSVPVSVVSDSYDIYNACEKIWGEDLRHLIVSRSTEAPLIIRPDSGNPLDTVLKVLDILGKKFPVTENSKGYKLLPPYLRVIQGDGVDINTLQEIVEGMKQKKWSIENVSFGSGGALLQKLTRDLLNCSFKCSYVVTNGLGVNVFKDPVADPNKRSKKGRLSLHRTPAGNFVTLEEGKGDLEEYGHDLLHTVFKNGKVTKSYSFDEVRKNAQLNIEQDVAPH

For `O=C(NCc1ccc([C@@H]2O[C@H](COP(=O)(O)O)[C@@H](O)[C@H]2O)cc1)Nc1ccc(S(=O)(=O)c2ccccc2)cc1` [9a, ((2R,3S,4R,5S)-3,4-Dihydroxy-5-(4-((3-(4-(phenylsulfonyl)phenyl)ureido)methyl)phenyl)tetrahydrofuran-2-yl)methyldihydrogenphosphate], the co-crystal structure result is “Compound 9a bound to dimeric NAMPT (PDB: 7Q8T)”.
